According to ChEMBL document CHEMBL1201862, “PubChem BioAssay data set” (2004):
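Exposure lasted 48 hours, with cells grown in 96-well plates and compounds tested at five concentrations. GI50 marks 50% less growth.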 Calls of active or inactive are those of the source. Cut-off read from the data, not from the text of the source: active = GI50 up to about 1.1 µM and inactive = higher.

Experiments:
Assay in all cases: DTP human tumour cell line panel, 48 h
SF-295 = system: SF-295
HOP-62 = system: HOP-62
HT-29 = system: HT-29
KM12 = system: KM12
SK-OV-3 = system: SK-OV-3
COLO 205 = system: COLO 205
CAKI-1 = system: CAKI-1
HCT-116 = system: HCT-116
UO-31 = system: UO-31
RPMI-8226 = system: RPMI-8226
SNB-19 = system: SNB-19
NCI-H522 = system: NCI-H522
SF-539 = system: SF-539
NCI-H23 = system: NCI-H23
HCT-15 = system: HCT-15
OVCAR-5 = system: OVCAR-5
MDA-MB-435 = system: MDA-MB-435
NCI/ADR-RES = system: NCI/ADR-RES
PC-3 = system: PC-3

Row | Structure (SMILES) | GI50 (SF-295) | GI50 (HOP-62) | GI50 (HT-29) | GI50 (KM12) | GI50 (SK-OV-3) | GI50 (COLO 205) | GI50 (CAKI-1) | GI50 (HCT-116) | GI50 (UO-31) | GI50 (RPMI-8226) | GI50 (SNB-19) | GI50 (NCI-H522) | GI50 (SF-539) | GI50 (NCI-H23) | GI50 (HCT-15) | GI50 (OVCAR-5) | GI50 (MDA-MB-435) | GI50 (NCI/ADR-RES) | GI50 (PC-3)
1 | O=c1oc2c3ccc4ccccc4c3n(CCN3CCOCC3)c2c2ccccc12 | 6.38 µM (inactive) | 26.4 µM (inactive) | 27.4 µM (inactive) | > 100 µM (inactive) | > 100 µM (inactive) | > 100 µM (inactive) | 6.78 µM (inactive) | > 100 µM (inactive) | 0.622 µM (active) | 46.5 µM (inactive) | > 100 µM (inactive) | 2.48 µM (inactive) | 3.76 µM (inactive) | – | – | – | – | – | –
2 | COC12OCCN(CCO)C1=CC(=O)C1(C)N=NC(C)C12 (stereo unspecified) | > 100 µM (inactive) | – | > 100 µM (inactive) | > 100 µM (inactive) | > 100 µM (inactive) | > 100 µM (inactive) | > 100 µM (inactive) | > 100 µM (inactive) | > 100 µM (inactive) | > 100 µM (inactive) | – | > 100 µM (inactive) | > 100 µM (inactive) | > 100 µM (inactive) | > 100 µM | – | – | – | –
3 | COc1cc([C@@H]2c3cc4c(cc3[C@@H](NC(=O)c3ccc(N)cc3)C3COC(=O)[C@@H]32)OCO4)cc(OC)c1O (stereo partly specified) | 1.98 µM (inactive) | 0.535 µM (active) | 2.41 µM (inactive) | 2.65 µM (inactive) | 2.14 µM (inactive) | 10.8 µM (inactive) | 5.4 µM (inactive) | 2.47 µM (inactive) | 11.9 µM (inactive) | 1.61 µM (inactive) | 1.34 µM (inactive) | 1.75 µM (inactive) | 1.02 µM (active) | 1.3 µM (inactive) | 12.6 µM | 4.49 µM (inactive) | – | – | –
4 | C=C(CS(=O)(=O)c1ccccc1)[P+](c1ccccc1)(c1ccccc1)c1ccccc1 | 20.2 µM (inactive) | 28.1 µM (inactive) | 18.2 µM (inactive) | 14.7 µM (inactive) | 27.3 µM (inactive) | – | 23.4 µM (inactive) | 12.7 µM (inactive) | 27.5 µM (inactive) | 3.06 µM (inactive) | 28.4 µM (inactive) | 18.6 µM (inactive) | 23.5 µM (inactive) | 20.4 µM (inactive) | 23.6 µM | 33.9 µM (inactive) | – | – | –
5 | Cc1nc2ccccc2c(=O)n1NC(=S)Nc1ccccc1 | > 100 µM (inactive) | > 100 µM (inactive) | > 100 µM (inactive) | > 100 µM (inactive) | > 100 µM (inactive) | > 100 µM (inactive) | > 100 µM (inactive) | > 100 µM (inactive) | 88.9 µM (inactive) | > 100 µM (inactive) | – | > 100 µM (inactive) | > 100 µM (inactive) | 84.3 µM (inactive) | > 100 µM | > 100 µM (inactive) | – | – | –
6 | COC(=O)C(=O)OC1(C(C)=O)CC2(c3ccccc3)OC1(c1ccccc1)c1ccccc12 (stereo unspecified) | 14.5 µM (inactive) | 18.4 µM (inactive) | 17 µM (inactive) | – | 29.9 µM (inactive) | 15.8 µM (inactive) | 17.9 µM (inactive) | 16.2 µM (inactive) | 14.2 µM (inactive) | 20.8 µM (inactive) | 19.9 µM (inactive) | 17.7 µM (inactive) | 13 µM (inactive) | 17.2 µM (inactive) | 16.9 µM | 26.1 µM (inactive) | – | – | –
7 | COC(=O)C(C(=O)C(=O)NC1=C(Cl)C(=O)c2ccccc2C1=O)c1csc(-n2nc(-c3ccccc3)cc2-c2ccccc2)n1 (stereo unspecified) | > 100 µM (inactive) | > 100 µM (inactive) | 20.7 µM (inactive) | > 100 µM (inactive) | > 100 µM (inactive) | > 100 µM (inactive) | > 100 µM (inactive) | > 100 µM (inactive) | 6.08 µM (inactive) | > 100 µM (inactive) | > 100 µM (inactive) | > 100 µM (inactive) | – | > 100 µM (inactive) | > 100 µM | > 100 µM (inactive) | – | – | –
8 | CC(C)(C)OC(=O)N1N=CCC1c1ccccc1 (stereo unspecified) | > 100 µM (inactive) | > 100 µM (inactive) | > 100 µM (inactive) | > 100 µM (inactive) | > 100 µM (inactive) | > 100 µM (inactive) | > 100 µM (inactive) | > 100 µM (inactive) | > 100 µM (inactive) | > 100 µM (inactive) | – | > 100 µM (inactive) | > 100 µM (inactive) | > 100 µM (inactive) | > 100 µM | > 100 µM (inactive) | > 100 µM (inactive) | > 100 µM (inactive) | –
9 | CSc1ncc2c(n1)-c1ccccc1OC2NC(C)(C)C (stereo unspecified) | 47.3 µM (inactive) | > 100 µM (inactive) | 77.6 µM (inactive) | > 100 µM (inactive) | 91.2 µM (inactive) | > 100 µM (inactive) | 35.7 µM (inactive) | > 100 µM (inactive) | 63.4 µM (inactive) | 57.7 µM (inactive) | > 100 µM (inactive) | 27.8 µM (inactive) | > 100 µM (inactive) | > 100 µM (inactive) | > 100 µM | 50.7 µM (inactive) | > 100 µM (inactive) | – | > 100 µM (inactive)
10 | Cc1nc2sccn2c1C(=O)NNC(N)=S | > 100 µM (inactive) | > 100 µM (inactive) | > 100 µM (inactive) | > 100 µM (inactive) | > 100 µM (inactive) | > 100 µM (inactive) | > 100 µM (inactive) | > 100 µM (inactive) | – | > 100 µM (inactive) | > 100 µM (inactive) | > 100 µM (inactive) | > 100 µM (inactive) | > 100 µM (inactive) | > 100 µM | > 100 µM (inactive) | – | – | –
11 | COC1OC(COCc2ccc(Cl)cc2)C(OCc2ccc(Cl)cc2)C1O (stereo unspecified) | 18 µM (inactive) | 17.5 µM (inactive) | 17.9 µM (inactive) | 15 µM (inactive) | 33.9 µM (inactive) | 19 µM (inactive) | 18 µM (inactive) | – | 15.1 µM (inactive) | 23.9 µM (inactive) | 18 µM (inactive) | 12.8 µM (inactive) | 16.3 µM (inactive) | 15.8 µM (inactive) | 16 µM | 16.1 µM (inactive) | – | – | –
12 | N#Cc1ccc(Oc2ccccc2)cc1C#N | > 100 µM (inactive) | > 100 µM (inactive) | 53.2 µM (inactive) | > 100 µM (inactive) | > 100 µM (inactive) | 23.2 µM (inactive) | 63.4 µM (inactive) | 74.8 µM (inactive) | 92.3 µM (inactive) | 42.8 µM (inactive) | > 100 µM (inactive) | 23.4 µM (inactive) | > 100 µM (inactive) | > 100 µM (inactive) | 19.1 µM | > 100 µM (inactive) | – | – | –
13 | Clc1ccccc1C1SCc2nc3ccccc3n21 (stereo unspecified) | 28.8 µM (inactive) | 19.3 µM (inactive) | 29.4 µM (inactive) | 30.8 µM (inactive) | 27.6 µM (inactive) | 49.7 µM (inactive) | 25.4 µM (inactive) | 18.7 µM (inactive) | – | 20 µM (inactive) | 12.4 µM (inactive) | 9.55 µM (inactive) | 33.5 µM (inactive) | 25.4 µM (inactive) | 22.6 µM | 17.6 µM (inactive) | – | – | –
14 | CC(C)=CC(=O)C1c2cccc(O)c2C(=O)c2c(O)cc(C)cc21 (stereo unspecified) | 1.84 µM (inactive) | 2.86 µM (inactive) | 6.97 µM (inactive) | 1.63 µM (inactive) | 2.81 µM (inactive) | 1.79 µM (inactive) | 5.25 µM (inactive) | 2.14 µM (inactive) | 2.09 µM (inactive) | 3.61 µM (inactive) | 2.12 µM (inactive) | 2 µM (inactive) | 1.56 µM (inactive) | 2.44 µM (inactive) | 3.24 µM | 2.34 µM (inactive) | – | – | –
15 | CCCCCCC(C)OC(=O)/C=C(\CC(=O)OC(C)CCCCCC)C(=O)OC(C)CCCCCC (stereo unspecified) | > 100 µM (inactive) | > 100 µM (inactive) | > 100 µM (inactive) | – | > 100 µM (inactive) | > 100 µM (inactive) | > 100 µM (inactive) | > 100 µM (inactive) | > 100 µM (inactive) | > 100 µM (inactive) | – | > 100 µM (inactive) | > 100 µM (inactive) | > 100 µM (inactive) | > 100 µM | > 100 µM (inactive) | – | – | –
16 | C=CCCC(=O)N1CCC(C(=O)OCC)C1=O (stereo unspecified) | > 100 µM (inactive) | > 100 µM (inactive) | – | > 100 µM (inactive) | > 100 µM (inactive) | > 100 µM (inactive) | > 100 µM (inactive) | > 100 µM (inactive) | > 100 µM (inactive) | – | > 100 µM (inactive) | > 100 µM (inactive) | > 100 µM (inactive) | > 100 µM (inactive) | > 100 µM | > 100 µM (inactive) | > 100 µM (inactive) | > 100 µM (inactive) | > 100 µM (inactive)
17 | CSCC1CC(c2ccc(Cl)cc2)=NO1 (stereo unspecified) | > 100 µM (inactive) | > 100 µM (inactive) | > 100 µM (inactive) | > 100 µM (inactive) | > 100 µM (inactive) | > 100 µM (inactive) | > 100 µM (inactive) | > 100 µM (inactive) | > 100 µM (inactive) | > 100 µM (inactive) | – | > 100 µM (inactive) | > 100 µM (inactive) | > 100 µM (inactive) | > 100 µM | > 100 µM (inactive) | – | – | –
18 | COc1ccc(NC(=O)c2cc(OC)cc(OC)c2)cc1 | 17.8 µM (inactive) | > 36.5 µM (inactive) | 4.49 µM (inactive) | 4.49 µM (inactive) | 31.4 µM (inactive) | 7.1 µM (inactive) | 21.9 µM (inactive) | 8.41 µM (inactive) | 44 µM (inactive) | 18 µM (inactive) | > 60.8 µM (inactive) | 13.6 µM (inactive) | 25.1 µM (inactive) | 41.1 µM (inactive) | 6.93 µM | > 59.8 µM (inactive) | – | – | –
